Key:
Format in all cases: in vivo
[1] = tested on: sicklepod (Cassia obtusifolia, CASOB); test: Post-emerge test, greenhouse herbicide activity screening; conditions: post-emerge, 14 days after application, rating scale 0-100
How it was run: (§1)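 Herbicidal damage is scored 0 (none) to 100 (complete plant death) two weeks after a simulated field spray. Rates span 15–1000 g ai/ha, delivered in acetone at 187 l/ha. For post-emergence treatments, plants have 2–3 leaves and the spray carries 0.25% v/v non-ionic surfactant.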

[2] = tested on: johnsongrass (Sorghum halepense, SORHA); test: as above; conditions: post-emerge, 14 days after application, rating scale 0-100
How it was run: as §1

[3] = tested on: velvetleaf (Abutilon theophrasti, ABUTH); test: as above; conditions: post-emerge, 14 days after application, rating scale 0-100
How it was run: as §1

[4] = tested on: green foxtail (Setaria viridis, SETVI); test: as above; conditions: post-emerge, 14 days after application, rating scale 0-100
How it was run: as §1

[5] = tested on: ivyleaf morningglory (Ipomoea hederacea, IPOHE); test: as above; conditions: post-emerge, 14 days after application, rating scale 0-100
How it was run: as §1

[6] = tested on: barnyardgrass (Echinochloa crus-galli, ECHCG); test: as above; conditions: post-emerge, 14 days after application, rating scale 0-100
How it was run: as §1

[7] = tested on: lambsquarters (Chenopodium album, CHEAL); test: as above; conditions: post-emerge, 14 days after application, rating scale 0-100
How it was run: as §1

[8] = tested on: large crabgrass (Digitaria sanguinalis, DIGSA); test: as above; conditions: post-emerge, 14 days after application, rating scale 0-100
How it was run: as §1

[9] = tested on: redroot pigweed (Amaranthus retroflexus, AMARE); test: as above; conditions: post-emerge, 14 days after application
How it was run: as §1

[10] = tested on: field corn (Zea mays L., var. Dekalb 535, CORN); test: Pre-emerge test, crop safety; conditions: pre-emerge, 14 days after application; for phytotoxicity rating CORN (crop damage): scale 0-100; for phytotoxicity rating CORN: rating scale 0-100
How it was run: (§2)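 Compounds in acetone were track-sprayed at 187 l/ha, 15–1000 g ai/ha, onto sandy loam pots. Pre-emerge seeds were sown one day before spraying, with surface watering afterwards. Post-emerge plants were at the 2–3 leaf stage and sprayed with 0.25% v/v non-ionic surfactant. Injury was rated 0–100 at 14 days.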

[11] = tested on: upland rice (Oryza sp., var. Tebonnet, RICE); test: Pre-emerge test, crop safety; conditions: pre-emerge, 14 days after application; for phytotoxicity rating RICE (crop damage): scale 0-100; for phytotoxicity rating RICE: rating scale 0-100
How it was run: as §2

[12] = tested on: redroot pigweed (Amaranthus retroflexus, AMARE); test: Pre-emerge test, greenhouse herbicide activity screening; conditions: pre-emerge, 14 days after application
How it was run: as §1

[13] = tested on: field corn (Zea mays L., var. Dekalb 535, CORN); test: Post-emerge test, crop safety; conditions: post-emerge, 14 days after application, rating scale 0-100
How it was run: (§3)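 Rating: 0–100 visual injury, 14 DAA. Application: acetone, 187 l/ha, 15–1000 g ai/ha, flat-fan track sprayer with nozzle 40–45 cm above soil or canopy. Post-emerge runs used 0.25% v/v surfactant on 2–3 leaf plants.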

[14] = tested on: upland rice (Oryza sp., var. Tebonnet, RICE); test: Post-emerge test, crop safety; conditions: post-emerge, 14 days after application, rating scale 0-100
How it was run: as §3

[15] = tested on: sicklepod (Cassia obtusifolia, CASOB); test: Pre-emerge test, greenhouse herbicide activity screening; conditions: pre-emerge, 14 days after application
How it was run: (§4)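 Compounds in acetone were track-sprayed at 15–1000 g ai/ha: pre-emergence onto soil sown the previous day, then top-watered to incorporate and later bottom-watered; post-emergence onto 2–3 leaf plants with 0.25% v/v surfactant, bottom-watered only. Ratings on a 0–100 phytotoxicity scale were taken at day 14.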

[16] = tested on: johnsongrass (Sorghum halepense, SORHA); test: as above; conditions: pre-emerge, 14 days after application
How it was run: as §4

[17] = tested on: velvetleaf (Abutilon theophrasti, ABUTH); test: as above; conditions: pre-emerge, 14 days after application
How it was run: as §4

[18] = tested on: green foxtail (Setaria viridis, SETVI); test: as above; conditions: pre-emerge, 14 days after application
How it was run: as §4

[19] = tested on: ivyleaf morningglory (Ipomoea hederacea, IPOHE); test: as above; conditions: pre-emerge, 14 days after application
How it was run: as §4

[20] = tested on: barnyardgrass (Echinochloa crus-galli, ECHCG); test: as above; conditions: pre-emerge, 14 days after application
How it was run: as §4

[21] = tested on: lambsquarters (Chenopodium album, CHEAL); test: as above; conditions: pre-emerge, 14 days after application
How it was run: as §4

[22] = tested on: large crabgrass (Digitaria sanguinalis, DIGSA); test: as above; conditions: pre-emerge, 14 days after application
How it was run: as §4

[23] = 250 g ai/ha, rating scale 0-100

SMILES: CCOC(=O)CSCC(=O)Nc1c(OC)c(Cl)cc(F)c1-n1c(=O)cc(C(F)(F)F)n(C)c1=O [2-170]
- CASOB phytotoxicity rating ([1]; 63 g ai/ha): 10
- CASOB phytotoxicity rating ([1]; 250 g ai/ha): 60
- SORHA phytotoxicity rating ([2]; 63 g ai/ha): 0
- SORHA phytotoxicity rating ([2]; 250 g ai/ha): 10
- ABUTH phytotoxicity rating ([3]; 63 g ai/ha): 35
- ABUTH phytotoxicity rating ([3]; 250 g ai/ha): 90
- SETVI phytotoxicity rating ([4]; 63 g ai/ha): 10
- SETVI phytotoxicity rating ([4]; 250 g ai/ha): 20
- IPOHE phytotoxicity rating ([5]; 63 g ai/ha): 50
- IPOHE phytotoxicity rating ([5]; 250 g ai/ha): 95
- ECHCG phytotoxicity rating ([6]; 63 g ai/ha): 0
- ECHCG phytotoxicity rating ([6]; 250 g ai/ha): 20
- CHEAL phytotoxicity rating ([7]; 63 g ai/ha): 60
- CHEAL phytotoxicity rating ([7]; 250 g ai/ha): 50
- DIGSA phytotoxicity rating ([8]; 63 g ai/ha): 0
- DIGSA phytotoxicity rating ([8]; 250 g ai/ha): 30
- AMARE phytotoxicity rating ([9]; 63 g ai/ha, rating scale 0-100): 20
- AMARE phytotoxicity rating [9, 23]: 30
- phytotoxicity rating CORN (crop damage) ([10]; 63 g ai/ha): 10
- phytotoxicity rating CORN (crop damage) ([10]; 250 g ai/ha): 15
- phytotoxicity rating RICE (crop damage) ([11]; 63 g ai/ha): 10
- phytotoxicity rating RICE (crop damage) ([11]; 250 g ai/ha): 0
- phytotoxicity rating AMARE ([12]; 63 g ai/ha, scale 0-100): 70
- phytotoxicity rating AMARE ([12]; 250 g ai/ha, scale 0-100): 100
- CORN phytotoxicity rating (crop damage) ([13]; 63 g ai/ha): 5
- CORN phytotoxicity rating (crop damage) ([13]; 250 g ai/ha): 15
- RICE phytotoxicity rating (crop damage) ([14]; 63 g ai/ha): 5
- RICE phytotoxicity rating (crop damage) ([14]; 250 g ai/ha): 10
- phytotoxicity rating CASOB ([15]; 63 g ai/ha, scale 0-100): 30
- phytotoxicity rating CASOB ([15]; 250 g ai/ha, scale 0-100): 60
- phytotoxicity rating SORHA ([16]; 63 g ai/ha, scale 0-100): 20
- phytotoxicity rating SORHA ([16]; 250 g ai/ha, scale 0-100): 80
- phytotoxicity rating ABUTH ([17]; 63 g ai/ha, scale 0-100): 90
- phytotoxicity rating ABUTH ([17]; 250 g ai/ha, scale 0-100): 100
- phytotoxicity rating SETVI ([18]; 63 g ai/ha, scale 0-100): 60
- phytotoxicity rating SETVI ([18]; 250 g ai/ha, scale 0-100): 90
- phytotoxicity rating IPOHE ([19]; 63 g ai/ha, scale 0-100): 40
- phytotoxicity rating IPOHE ([19]; 250 g ai/ha, scale 0-100): 70
- phytotoxicity rating ECHCG ([20]; 63 g ai/ha, scale 0-100): 0
- phytotoxicity rating ECHCG ([20]; 250 g ai/ha, scale 0-100): 50
- phytotoxicity rating CHEAL ([21]; 63 g ai/ha, scale 0-100): 100
- phytotoxicity rating CHEAL ([21]; 250 g ai/ha, scale 0-100): 100
- phytotoxicity rating DIGSA ([22]; 63 g ai/ha, scale 0-100): 30
- phytotoxicity rating DIGSA ([22]; 250 g ai/ha, scale 0-100): 90

SMILES: COc1c(Cl)cc(F)c(-n2c(=O)cc(C(F)(F)F)n(C)c2=O)c1SC(C)C [17-2]
- Post-emerge Herbicidal Activity CASOB (phytotoxicity rating) ([1]; 63 g ai/ha): 0
- Post-emerge Herbicidal Activity CASOB (phytotoxicity rating) ([1]; 250 g ai/ha): 10
- Post-emerge Herbicidal Activity SORHA (phytotoxicity rating) ([2]; 63 g ai/ha): 0
- Post-emerge Herbicidal Activity SORHA (phytotoxicity rating) ([2]; 250 g ai/ha): 0
- Post-emerge Herbicidal Activity ABUTH (phytotoxicity rating) ([3]; 63 g ai/ha): 0
- Post-emerge Herbicidal Activity ABUTH (phytotoxicity rating) ([3]; 250 g ai/ha): 50
- Post-emerge Herbicidal Activity SETVI (phytotoxicity rating) ([4]; 63 g ai/ha): 0
- Post-emerge Herbicidal Activity SETVI (phytotoxicity rating) ([4]; 250 g ai/ha): 0
- Post-emerge Herbicidal Activity IPOHE (phytotoxicity rating) ([5]; 63 g ai/ha): 0
- Post-emerge Herbicidal Activity IPOHE (phytotoxicity rating) ([5]; 250 g ai/ha): 20
- Post-emerge Herbicidal Activity ECHCG (phytotoxicity rating) ([6]; 63 g ai/ha): 0
- Post-emerge Herbicidal Activity ECHCG (phytotoxicity rating) ([6]; 250 g ai/ha): 0
- Post-emerge Herbicidal Activity CHEAL (phytotoxicity rating) ([7]; 63 g ai/ha): 0
- Post-emerge Herbicidal Activity CHEAL (phytotoxicity rating) ([7]; 250 g ai/ha): 40
- Post-emerge Herbicidal Activity DIGSA (phytotoxicity rating) ([8]; 63 g ai/ha): 0
- Post-emerge Herbicidal Activity DIGSA (phytotoxicity rating) ([8]; 250 g ai/ha): 0
- Post-emerge Herbicidal Activity AMARE (phytotoxicity rating) ([9]; 63 g ai/ha, rating scale 0-100 (0 no damage, 100 complete death)): 0
- Post-emerge Herbicidal Activity AMARE (phytotoxicity rating) [9, 23]: 30
- phytotoxicity rating CORN ([10]; 63 g ai/ha): 0
- phytotoxicity rating CORN ([10]; 250 g ai/ha): 0
- phytotoxicity rating RICE ([11]; 63 g ai/ha): 0
- phytotoxicity rating RICE ([11]; 250 g ai/ha): 0
- phytotoxicity rating AMARE ([12]; 63 g ai/ha, rating scale 0-100): 30
- phytotoxicity rating AMARE [12, 23]: 60
- Post-emerge Herbicidal Activity CORN (crop damage rating) ([13]; 63 g ai/ha): 0
- Post-emerge Herbicidal Activity CORN (crop damage rating) ([13]; 250 g ai/ha): 0
- Post-emerge Herbicidal Activity RICE (crop damage rating) ([14]; 63 g ai/ha): 0
- Post-emerge Herbicidal Activity RICE (crop damage rating) ([14]; 250 g ai/ha): 0
- phytotoxicity rating CASOB ([15]; 63 g ai/ha, rating scale 0-100): 0
- phytotoxicity rating CASOB [15, 23]: 0
- phytotoxicity rating SORHA ([16]; 63 g ai/ha, rating scale 0-100): 0
- phytotoxicity rating SORHA [16, 23]: 0
- phytotoxicity rating ABUTH ([17]; 63 g ai/ha, rating scale 0-100): 0
- phytotoxicity rating ABUTH [17, 23]: 20
- phytotoxicity rating SETVI ([18]; 63 g ai/ha, rating scale 0-100): 0
- phytotoxicity rating SETVI [18, 23]: 0
- phytotoxicity rating IPOHE ([19]; 63 g ai/ha, rating scale 0-100): 0
- phytotoxicity rating IPOHE [19, 23]: 0
- phytotoxicity rating ECHCG ([20]; 63 g ai/ha, rating scale 0-100): 0
- phytotoxicity rating ECHCG [20, 23]: 0
- phytotoxicity rating CHEAL ([21]; 63 g ai/ha, rating scale 0-100): 60
- phytotoxicity rating CHEAL [21, 23]: 90
- phytotoxicity rating DIGSA ([22]; 63 g ai/ha, rating scale 0-100): 0
- phytotoxicity rating DIGSA [22, 23]: 0

— US6355799B1, “Substituted benzene compounds, process for their preparation, and herbicidal and defoliant compositions containing them” (ISK Americas Incorporated, priority 1997, dated 2002)
